ChEMBL document CHEMBL1137721, “Modeling the activity of furin inhibitors using artificial neural network” (Eur J Med Chem, 2009)

target: Furin (Homo sapiens, UniProt P09958); test: Inhibition of human recombinant furin-dependent anthrax protective antigen processing
Sequence (P09958 whole entry): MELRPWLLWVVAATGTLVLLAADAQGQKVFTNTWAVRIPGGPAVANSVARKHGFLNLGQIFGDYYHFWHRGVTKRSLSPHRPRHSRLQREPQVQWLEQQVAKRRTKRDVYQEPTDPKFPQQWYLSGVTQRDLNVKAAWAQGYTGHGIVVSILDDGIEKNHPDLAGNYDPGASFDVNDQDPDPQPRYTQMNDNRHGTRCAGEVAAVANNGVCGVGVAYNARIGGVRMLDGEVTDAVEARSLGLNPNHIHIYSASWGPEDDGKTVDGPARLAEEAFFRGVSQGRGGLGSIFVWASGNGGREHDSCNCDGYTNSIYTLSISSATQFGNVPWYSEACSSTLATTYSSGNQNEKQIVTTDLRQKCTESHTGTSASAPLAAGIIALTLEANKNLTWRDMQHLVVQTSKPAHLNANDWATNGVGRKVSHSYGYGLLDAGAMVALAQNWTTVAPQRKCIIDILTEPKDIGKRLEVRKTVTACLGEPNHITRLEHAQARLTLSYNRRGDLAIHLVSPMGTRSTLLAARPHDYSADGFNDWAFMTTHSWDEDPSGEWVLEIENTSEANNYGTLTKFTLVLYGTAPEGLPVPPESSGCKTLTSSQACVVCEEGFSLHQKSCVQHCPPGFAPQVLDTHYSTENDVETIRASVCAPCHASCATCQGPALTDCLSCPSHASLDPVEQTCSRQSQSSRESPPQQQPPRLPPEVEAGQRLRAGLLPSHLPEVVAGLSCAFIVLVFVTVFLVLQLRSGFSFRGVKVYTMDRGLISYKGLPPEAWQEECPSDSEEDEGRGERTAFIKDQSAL

Which Ki does the source give for `NC(N)=Nc1ccc(O[C@H]2C[C@@H](Oc3ccc(N=C(N)N)c4ccccc34)[C@H](N=C(N)N)C[C@@H]2N=C(N)N)c(N=C(N)N)c1` here?
The Ki was 404 nM.

Which Ki does the source give for `NC(N)=Nc1ccc(O[C@H]2C[C@@H](Oc3ccc(N=C(N)N)c4ccccc34)[C@H](N=C(N)N)C[C@@H]2N=C(N)N)c2ccccc12` here?
Its Ki is 69 nM.

How did the Ki turn out when `NC(N)=N[C@H]1C[C@@H](N=C(N)N)[C@H](Oc2ccccn2)C[C@@H]1Oc1ccccn1` was run?
Its Ki is 100000 nM.

`N=C(N)Nc1ccccc1NC(=O)O[C@H]1C[C@@H](OC(=O)Nc2ccccc2NC(=N)N)[C@H](NC(=N)N)C[C@@H]1NC(=N)N` was tested. Which Ki did it give?
Its Ki is 100000 nM.

For `NC(N)=Nc1ccc(N[C@H]2C[C@@H](N=C(N)N)[C@H](Oc3ccc(N=C(N)N)cc3)C[C@@H]2Oc2ccc(N=C(N)N)cc2)cc1`, which Ki is on record?
Its Ki is 46 nM.

`N=C(N)N[C@H]1C[C@@H](NC(=N)N)[C@H](Oc2ccc3nc(N)[nH]c3c2)C[C@@H]1Oc1ccc2nc(N)[nH]c2c1` was tested. Which Ki did it give?
The Ki was 100000 nM.

How did the Ki turn out when `NC(N)=Nc1ccccc1O[C@H]1C[C@@H](Oc2ccccc2N=C(N)N)[C@H](N=C(N)N)C[C@@H]1N=C(N)N` was run?
The Ki was 100000 nM.

How did the Ki turn out when `N=C(N)Nc1ccc(O[C@H]2C[C@@H](Oc3ccc(NC(=N)N)c4ccccc34)[C@H](NC(=N)N)C[C@@H]2NC(=N)N)c(N)c1` was run?
The Ki was 22 nM.

For `N=C(N)Nc1ccc(O[C@H]2C[C@@H](Oc3ccc(NC(=N)N)cn3)[C@H](NC(=N)N)C[C@@H]2NC(=N)N)nc1`, which Ki is on record?
Its Ki is 42 nM.

Which Ki does the source give for `NC(N)=Nc1ccc(O[C@H]2C[C@@H](Oc3ccc(N=C(N)N)cc3)[C@H](N=C(N)N)C[C@@H]2N=C(N)N)cc1` here?
The Ki was 12 nM.

Which Ki does the source give for `N=C(N)Nc1ccc(NC(=O)O[C@H]2C[C@@H](OC(=O)Nc3ccc(NC(=N)N)cc3)[C@H](NC(=N)N)C[C@@H]2NC(=N)N)cc1` here?
The Ki was 812 nM.

How did the Ki turn out when `NC(N)=Nc1cccnc1O[C@H]1C[C@@H](Oc2ncccc2N=C(N)N)[C@H](N=C(N)N)C[C@@H]1N=C(N)N` was run?
The Ki was 100000 nM.

With `NC(N)=Nc1ccc(O[C@@H]2C[C@H](Oc3ccc(N=C(N)N)cc3N=C(N)N)[C@@H](N=C(N)N)C[C@H]2N=C(N)N)cc1` as the compound, how does the Ki read?
The Ki was 89 nM.

`NC(N)=Nc1cccc(NC(=O)O[C@H]2C[C@@H](OC(=O)Nc3cccc(N=C(N)N)c3)[C@H](N=C(N)N)C[C@@H]2N=C(N)N)c1` was tested. Which Ki did it give?
The Ki was 1770 nM.

`N=C(N)Nc1ccc(O[C@H]2C[C@@H](Oc3ccc(NC(=N)N)cc3NC(=N)N)[C@H](NC(=N)N)C[C@@H]2NC(=N)N)c(NC(=N)N)c1` was tested. Which Ki did it give?
Its Ki is 169 nM.

`NC(N)=Nc1ccc(N[C@H]2C[C@@H](N=C(N)N)[C@H](Oc3ccc(N=C(N)N)c4ccccc34)C[C@@H]2Oc2ccc(N=C(N)N)c3ccccc23)c2ccccc12` was tested. Which Ki did it give?
Its Ki is 423 nM.

How did the Ki turn out when `NC(N)=Nc1cnccc1O[C@H]1C[C@@H](Oc2ccncc2N=C(N)N)[C@H](N=C(N)N)C[C@@H]1N=C(N)N` was run?
Its Ki is 100000 nM.

`N=C(N)Nc1ccc(O[C@H]2C[C@@H](Oc3ccc(NC(=N)N)c4ccccc34)[C@H](NC(=N)N)C[C@@H]2NC(=N)N)cc1` was tested. Which Ki did it give?
Its Ki is 6 nM.
